The source of these data is patent publication US11999727B2 (Tango Therapeutics, Inc., priority 2020, dated 2024).

Test [1] addresses T1, PRMT5 (Homo sapiens, UniProt O14744).
T1 construct: purchased Viva (custom protein)
Put plainly: PRMT5 biochemical IC50 assay with SAM as cofactor. As to conditions: PRMT5, SAM as cofactor; read-out: SAM IC50.

Test [2] concerns the target T1, PRMT5. Put plainly: PRMT5 biochemical IC50 assay with no cofactor. Particulars: PRMT5, no cofactor; read-out: No Cofactor/ rel IC50. The text has this:
Table 1 indicates IC50 values (μM) against PRMT5 for exemplary compounds in the presence of SAM as cofactor, with no cofactor, and with MTA as cofactor, respectively (columns 4-6). […] Ki values can be calculated from the IC50 values as described in the Examples section. As detailed in the Examples section, for the assay performed in the presence of SAM, IC50=Ki×1.5 (Ki=IC50/1.5).

The target of test [3] is T1, PRMT5. Put plainly: PRMT5 biochemical IC50 assay with MTA as cofactor. As to conditions: PRMT5, MTA as cofactor; read-out: MTA IC50.
In test [4] the test system is HAP1 MTAP-intact cell line. Put plainly: SDMA in-cell western assay, HAP1 MTAP-intact. In kind it is cell-based. As to conditions: Homo sapiens, HAP1, SDMA in-cell western, HAP1 MTAP-intact; read-out: MTAP HAP1 intact IC50. In short, it runs like this: (§1)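 IC50 values come from SDMA signal quantified by in-cell western in two HAP1 lines, one with native MTAP levels and one lacking MTAP.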

Test [5] deals with HAP1 MTAP-deleted cell line. Put plainly: SDMA in-cell western assay, HAP1 MTAP-deleted. The test is classed as cell-based. Particulars: for IC50: Homo sapiens, HAP1, SDMA in-cell western, HAP1 MTAP-deleted, read-out: HAP 1 MTAP deleted IC50; for MTAP intact/deleted ratio: IC50 ratio HAP1 MTAP-intact / HAP1 MTAP-deleted, SDMA in-cell western. The gist of the method: as §1
For test [6], the system named is HAP1 MTAP-deleted cell line. Put plainly: Viability assay, MTAP-deleted cell line. The test is classed as cell-based. Particulars: Homo sapiens, HAP1, viability assay, MTAP-deleted cell line; read-out: HAP1 MTAP deleted viability. The text has this: Table 1 additionally indicates IC50 values in a viability assay for the MTAP-deleted cell line (column 10), indicating the effect of treatment with compound on cell survival.

SMILES strings stand for the structures.

T1 sequence (O14744 whole entry): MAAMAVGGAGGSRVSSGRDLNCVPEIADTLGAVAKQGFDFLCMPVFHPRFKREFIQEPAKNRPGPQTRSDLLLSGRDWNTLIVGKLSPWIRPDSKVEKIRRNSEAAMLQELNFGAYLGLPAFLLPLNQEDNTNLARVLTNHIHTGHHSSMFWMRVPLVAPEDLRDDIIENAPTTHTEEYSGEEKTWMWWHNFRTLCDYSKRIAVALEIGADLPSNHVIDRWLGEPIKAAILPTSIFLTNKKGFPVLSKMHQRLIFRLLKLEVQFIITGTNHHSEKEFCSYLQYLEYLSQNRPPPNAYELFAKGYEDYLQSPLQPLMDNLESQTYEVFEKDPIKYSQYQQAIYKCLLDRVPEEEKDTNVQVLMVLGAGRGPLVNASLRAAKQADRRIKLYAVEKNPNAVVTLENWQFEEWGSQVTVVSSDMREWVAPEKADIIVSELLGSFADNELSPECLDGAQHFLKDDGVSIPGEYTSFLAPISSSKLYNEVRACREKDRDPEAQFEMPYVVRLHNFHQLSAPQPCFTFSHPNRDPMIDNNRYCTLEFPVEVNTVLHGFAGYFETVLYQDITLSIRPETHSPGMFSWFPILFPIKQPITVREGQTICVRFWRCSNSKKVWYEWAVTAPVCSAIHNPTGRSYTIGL
T1 sequence (Q9BQA1 whole entry partner): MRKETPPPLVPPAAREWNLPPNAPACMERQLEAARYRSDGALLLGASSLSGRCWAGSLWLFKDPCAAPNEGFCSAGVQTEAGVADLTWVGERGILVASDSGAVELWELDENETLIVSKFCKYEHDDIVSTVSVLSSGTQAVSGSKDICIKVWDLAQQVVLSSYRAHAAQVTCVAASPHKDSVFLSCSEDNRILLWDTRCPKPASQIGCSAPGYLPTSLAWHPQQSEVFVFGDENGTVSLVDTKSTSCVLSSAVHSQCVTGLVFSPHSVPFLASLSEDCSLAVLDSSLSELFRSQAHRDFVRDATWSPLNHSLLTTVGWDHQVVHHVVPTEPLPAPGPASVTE

Take `NC(=O)c1cncc(NC(=O)C(=O)N2CCCC3(C2)OC[C@@H]2C[C@@H]23)c1` (mixture of isomers) [Compound 124, rac-5-{2-[(R,5S)-3-Oxaspiro[bicyclo[3.1.0]hexane-2,3′-piperidine]-1′-yl]-2-oxoacetamido}pyridine-3-carboxamide]: the IC50 on PRMT5 [1] is over 500 nM; on PRMT5 [2], over 500 nM; at PRMT5 [3], 50 to 500 nM; in test [4], over 1000 nM; in test [5], over 1000 nM; in test [6] it was over 10000 nM. The “MTAP intact/deleted ratio” value in test [5] is given as “C (an IC50 ratio of less than 3 fold)”.

For `C[C@@H]1CC[C@@H](c2cccc(C(N)=O)c2)N(C(=O)C(=O)Nc2cncc(C(N)=O)c2)C1` (racemic) [Compound 125, rac-5-{2-[(2R,5S)-2-(3-Carbamoylphenyl)-5-methylpiperidin-1-yl]-2-oxoacetamido}pyridine-3-carboxamide], the IC50 is 50 to 500 nM on PRMT5 [1]; 50 to 500 nM on PRMT5 [2]; 50 to 500 nM on PRMT5 [3]; over 1000 nM in test [4]; over 1000 nM in test [5]; over 10000 nM in test [6]. In test [5], the “MTAP intact/deleted ratio” value was “B (an IC50 ratio greater than or equal to 3 fold but lower than 10 fold)”.

Turning to `COc1ccc([C@@H]2CC[C@@H](C)CN2C(=O)C(=O)Nc2cncc(C(N)=O)c2)cn1` (racemic) [Compound 128, rac-5-{2-[(2R,5S)-2-(6-Methoxypyridin-3-yl)-5-methylpiperidin-1-yl]-2-oxoacetamido}pyridine-3-carboxamide], the IC50 at PRMT5 [1] is 50 to 500 nM; on PRMT5 [2], 50 to 500 nM; at PRMT5 [3], under 50 nM; in test [4], over 1000 nM; in test [5], 100 to 1000 nM; in test [6], over 10000 nM. The “MTAP intact/deleted ratio” value in test [5] is “A (an IC50 ratio greater than or equal to 10 fold)”.

On to `Cc1cc([C@@H]2CC[C@@H](C)CN2C(=O)C(=O)Nc2cncc(C(N)=O)c2)ccc1F` (racemic) [Compound 131, rac-5-{2-[(2R,5S)-2-(4-Fluoro-3-methylphenyl)-5-methylpiperidin-1-yl]-2-oxoacetamido}pyridine-3-carboxamide], for which the IC50 is over 500 nM at PRMT5 [1]; 50 to 500 nM on PRMT5 [2]; under 50 nM on PRMT5 [3]; over 1000 nM in test [4]; under 100 nM in test [5]; 1000 to 10000 nM in test [6]. The “MTAP intact/deleted ratio” value in test [5] is listed as “A (an IC50 ratio greater than or equal to 10 fold)”.

In the case of `NC(=O)c1cncc(NC(=O)C(=O)N2CCC3CCCCCC3C2)c1` (racemic) [Compound 133, 5-(2-{Decahydro-1H-cyclohepta[c]pyridin-2-yl}-2-oxoacetamido)pyridine-3-carboxamide], the IC50 on PRMT5 [1] was 50 to 500 nM; on PRMT5 [2], over 500 nM; at PRMT5 [3], 50 to 500 nM; in test [4], over 1000 nM; in test [5], over 1000 nM; in test [6], over 10000 nM. Further, the “MTAP intact/deleted ratio” value in test [5] is on record as “B (an IC50 ratio greater than or equal to 3 fold but lower than 10 fold)”.

As for `Cc1cc(NC(=O)C(=O)N2CCCCC2C(C)C)cnc1N` (racemic) [Compound 135, N-(6-amino-5-methyl-3-pyridyl)-2-(2-isopropyl-1-piperidyl)-2-oxo-acetamide], the IC50 at PRMT5 [1] was 50 to 500 nM; on PRMT5 [2], 50 to 500 nM; on PRMT5 [3], under 50 nM; in test [4] it was over 1000 nM; in test [5] it was 100 to 1000 nM; in test [6], over 10000 nM. Besides, the “MTAP intact/deleted ratio” value in test [5] is reported as “A (an IC50 ratio greater than or equal to 10 fold)”.

As for `CC1(C)CCCC2CN(C(=O)C(=O)Nc3cncc(C(N)=O)c3)CCC21` (racemic) [Compound 141, 5-[2-(5,5-Dimethyl-decahydroisoquinolin-2-yl)-2-oxoacetamido]pyridine-3-carboxamide], the IC50 on PRMT5 [1] was 50 to 500 nM; on PRMT5 [2], 50 to 500 nM; on PRMT5 [3], under 50 nM; in test [4], over 1000 nM; in test [5] it was 100 to 1000 nM; in test [6], over 10000 nM. Also, the “MTAP intact/deleted ratio” value in test [5] is “A (an IC50 ratio greater than or equal to 10 fold)”.

In the case of `CC1CCC(C2CCCC2)CN1C(=O)C(=O)Nc1cncc(C(N)=O)c1` (racemic) [Compound 143, 5-[2-(5-Cyclopentyl-2-methylpiperidin-1-yl)-2-oxoacetamido]pyridine-3-carboxamide], the IC50 at PRMT5 [1] is over 500 nM; at PRMT5 [2] it was over 500 nM; on PRMT5 [3] it was 50 to 500 nM; in test [4] it was over 1000 nM; in test [5] it was over 1000 nM; in test [6] it was over 10000 nM. Besides, in test [5], the “MTAP intact/deleted ratio” value is “C (an IC50 ratio of less than 3 fold)”.

For the compound `Cc1cc(NC(=O)C(=O)N2C[C@H](C)CC[C@H]2C2CCC(C(C)(C)C)CC2)cnc1N` (mixture of isomers) [Compound 145, rac-N-(6-amino-5-methyl-3-pyridyl)-2-[(2S,5R)-2-(4-tert-butylcyclohexyl)-5-methyl-1-piperidyl]-2-oxo-acetamide], the IC50 was 50 to 500 nM on PRMT5 [1]; 50 to 500 nM at PRMT5 [2]; under 50 nM on PRMT5 [3]; over 1000 nM in test [4]; 100 to 1000 nM in test [5]; over 10000 nM in test [6]. Besides, the “MTAP intact/deleted ratio” value in test [5] was “C (an IC50 ratio of less than 3 fold)”.

Turning to `Cc1cc(NC(=O)C(=O)N2C[C@H](C)CC[C@H]2c2cccnc2)cnc1N` (racemic) [Compound 146, N-(6-amino-5-methyl-3-pyridyl)-2-[(2S,5R)-5-methyl-2-(3-pyridyl)-1-piperidyl]-2-oxo-acetamide], the IC50 is 50 to 500 nM on PRMT5 [1]; 50 to 500 nM on PRMT5 [2]; under 50 nM on PRMT5 [3]; over 1000 nM in test [4]; under 100 nM in test [5]; 1000 to 10000 nM in test [6].

Take `Cc1cc(NC(=O)C(=O)N2C[C@H](C)CC[C@H]2C2CCCC(C)(C)C2)cnc1N` (mixture of isomers) [Compound 150, N-(6-amino-5-methyl-3-pyridyl)-2-[(2S,5R)-2-(3,3-dimethylcyclohexyl)-5-methyl-1-piperidyl]-2-oxo-acetamide]: the IC50 at PRMT5 [1] was 50 to 500 nM; on PRMT5 [2], 50 to 500 nM; at PRMT5 [3], 50 to 500 nM; in test [4] it was over 1000 nM; in test [5], 100 to 1000 nM; in test [6], 1000 to 10000 nM. Further, the “MTAP intact/deleted ratio” value in test [5] is “C (an IC50 ratio of less than 3 fold)”.

For the compound `CC1Cc2cc([C@@H]3CC[C@@H](C)CN3C(=O)C(=O)Nc3cncc(C(N)=O)c3)ccc2O1` (mixture of isomers) [Compound 151, rac-5-{2-[(2R,5S)-5-Methyl-2-(2-methyl-2,3-dihydro-1-benzofuran-5-yl)piperidin-1-yl]-2-oxoacetamido}pyridine-3-carboxamide], the IC50 at PRMT5 [1] was 50 to 500 nM; on PRMT5 [2], 50 to 500 nM; at PRMT5 [3], under 50 nM; in test [4], over 1000 nM; in test [5], under 100 nM; in test [6] it was 1000 to 10000 nM. Besides, the “MTAP intact/deleted ratio” value in test [5] was “A (an IC50 ratio greater than or equal to 10 fold)”.
